In article PMC10348545 (PLOS Pathogens, 2023) one finds Ki data, which are given here for 2 compounds.

This test deals with T1, CbMip (Coxiella burnetii, UniProt P51752).
T1 construct: gene mip
Briefly: biochemical.

T1 sequence (P51752 22-230 limits assumed): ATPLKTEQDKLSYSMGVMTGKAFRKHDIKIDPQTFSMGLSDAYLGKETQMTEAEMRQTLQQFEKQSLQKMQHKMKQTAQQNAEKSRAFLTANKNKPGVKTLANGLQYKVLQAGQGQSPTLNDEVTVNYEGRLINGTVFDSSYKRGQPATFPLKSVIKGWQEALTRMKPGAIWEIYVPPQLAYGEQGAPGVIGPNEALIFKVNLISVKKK

Regarding `O=C(NCCOC(=O)[C@@H]1CCCCN1S(=O)(=O)Cc1ccccc1)c1cccnc1` [SF235], affinity was put at a Ki of 18 ± 4 µM.

The compound `O=C(O[C@@H](Cc1ccccc1)C(=O)NCc1cccnc1)C1CCCCN1S(=O)(=O)Cc1ccccc1` (some centres unmarked) [ANCH37] showed an inhibition constant Ki of 4.6 ± 0.9 µM.
